# Reference: patent US11370841B2, “Methods of treating fibroblast growth factor 19-mediated cancers and tumors” (NGM Biopharmaceuticals, Inc., priority 2016, dated 2022)
# B1: HGF: recombinant hepatocyte growth factor (Peprotech), positive control for BrdU incorporation (protein, UniProt Q08048 33-495; Q08048 496-728, looked up)
# Hepatocyte growth factor …: QKKRRNTLHEFKKSAKTTLTKEDPLLKIKTKKVNSADECANRCIRNRGFTFTCKAFVFDKSRKRCYWYPFNSMSSGVKKGFGHEFDLYENKDYIRNCIIGKGGSYKGTVSITKSGIKCQPWNSMIPHEHSFLPSSYRGKDLQENYCRNPRGEEGGPWCFTSNPEVRYEVCDIPQCSEVECMTCNGESYRGPMDHTESGKTCQRWDQQTPHRHKFLPERYPDKGFDDNYCRNPDGKPRPWCYTLDPDTPWEYCAIKTCAHSAVNETDVPMETTECIQGQGEGYRGTSNTIWNGIPCQRWDSQYPHKHDITPENFKCKDLRENYCRNPDGAESPWCFTTDPNIRVGYCSQIPKCDVSSGQDCYRGNGKNYMGNLSKTRSGLTCSMWDKNMEDLHRHIFWEPDASKLNKNYCRNPDDDAHGPWCYTGNPLIPWDYCPISRCEGDTTPTIVNLDHPVISCAKTKQLR
# Hepatocyte growth factor beta …: VVNGIPTQTTVGWMVSLKYRNKHICGGSLIKESWVLTARQCFPARNKDLKDYEAWLGIHDVHERGEEKRKQILNISQLVYGPEGSDLVLLKLARPAILDNFVSTIDLPSYGCTIPEKTTCSIYGWGYTGLINADGLLRVAHLYIMGNEKCSQHHQGKVTLNESELCAGAEKIGSGPCEGDYGGPLICEQHKMRMVLGVIVPGRGCAIPNRPGIFVRVAYYAKWIHKVILTYKL
# B2: IL-6: mouse IL-6 (Peprotech), positive control for pSTAT3 activation (protein, UniProt P08505 25-211, looked up)
# Interleukin-6: FPTSQVRRGDFTEDTTPNRPVYTTSQVGGLITHVLWEIVEMRKELCNGNSDCMNNDDALAENNLKLPEIQRNDGCYQTGYNQEICLLKISSGLLEYHSYLEYMKNNLKDNKKDKARVLQRDTETLIHIFNQEVKDLHKIVLPTPISNALLTDKLESQKEWLRTKTIQFILKSLEEFLKVTLRSTRQT
# Key:
# [1] = test system: FGF19-mediated HCC; test: Tumorigenicity study in db/db mice (AAV-SOCS3, tofacitinib); type: in vivo
# Method: Blood parameters. Blood was collected from tail vein in un-anesthetized animals using microvette serum gel tubes (Sarstedt) for measurements of glucose, insulin, ALT, AST, ALP, bile acids, and FGF19 concentrations. Serum samples were prepared by centrifugation at 4° C. for 10 minutes at 6000 g after clotting at room temperature for 30 minutes. For HbA1c measurements, whole blood was collected after euthanasia by cardiac puncture into EDTA-tubes and quickly inverted multiple times. HbA1c (from whole blood samples) and liver enzyme (from serum samples) levels were measured on Cobas Integra 400 Clinical Analyzer (Roche Diagnostics). Serum FGF19 level was determined by FGF19 enzyme-linked immunosorbent assays (ELISA) (Biovendor). Serum insulin was assessed with ELISA kits from ALPCO. Concentrations of total bile acids in serum were determined using a 3β-hydroxysteroid dehydrogenase method (Diazyme). All assays were performed according to the manufacturers' instructions.
# Histology and immunohistochemistry. Livers were fixed in 10% neutral-buffered formalin and embedded in paraffin. 5 μm sections were deparaffinized in xylenes, rehydrated sequentially in graded ethanol (100%, 95%, 80%, 70%, 50%, 2 minutes each). Hematoxylin and eosin staining was performed using standard methods. For immunohistochemical studies, liver sections were subjected to antigen retrieval in a citrate-based Antigen Unmasking Solution (Vector Laboratories), and incubated for 30 minutes with 3% H2O2 at room temperature to block endogenous peroxidase activity. Sections were stained with primary antibodies against glutamine synthetase (Thermo Fisher), BrdU, PCNA, or STAT3 in PBS containing 10% goat serum. Biotinylated secondary antibodies, ABC-HRP reagent (Vectastain ABC kit, #PK-6100, Vector Laboratories) and di-amine-benzidine (DAB) colorimetric peroxidase substrate (#SK-4100, Vector Laboratories) were used for detection. When indicated, sections were counterstained with hematoxylin. Digital imaging microscopy was performed using a Leica DM4000 microscope equipped with DFC500 camera and a scanning platform (Leica). Images for the entire liver section were acquired by stitching 70-96 fields together using Surveyor program for morphometric analysis. Glutamine synthetase-positive tumor areas were quantified using Measure/Count/Area tool from ImagePro software.
# Tumorigenicity study in db/db mice. 11 to 12 week old db/db mice received a single intravenous dose of AAV containing either FGF19 or a control gene (green fluorescent protein). Body weight and blood glucose were monitored. […] Mice were euthanized 24 weeks post-AAV administration and examined for liver tumor formation by gross appearance and histology.
# [2] = test system: primary mouse hepatocytes; test: In vitro BrdU incorporation in primary mouse hepatocytes; type: cell-based; conditions: 48 hours incubation
# Method: FIGS. 2A-2E depict non-cell autonomous promotion of hepatocellular proliferation by FGF19. 11 week old mice (n=5 per group) were implanted with osmotic pumps releasing BrdU (8.5 mg/kg/day) and FGF19 protein (0.4 mg/kg/day). Livers were harvested 6 days post-implant. (FIG. 2A) Flow cytometry analysis of BrdU-labeled livers is shown. Representative histograms from hepatocytes stained with 7-ADD and anti-BrdU-APC are shown. (FIG. 2B) BrdU-positive hepatocytes as a percentage of total hepatocytes from vehicle (V)-treated (n=5) or FGF19-treated (n=5) mice were quantified by flow cytometry. (FIG. 2C) Shown are circulating FGF19 levels on day 6 post-implant of osmotic pumps. (FIG. 2D) Lack of proliferative effects of FGF19 on primary mouse hepatocytes. Primary cultures of hepatocytes isolated from mouse liver were incubated with recombinant FGF19 protein at the indicated concentrations for 48 hours and BrdU was added during the last 20 hours of incubation. BrdU incorporation was determined using a luminescence method. Mouse hepatocyte growth factor (mHGF) was included as a positive control. RLU, relative luminescence unit. (FIG. 2E) Lack of proliferative effects of FGF19 on primary human hepatocytes. Primary cultures of hepatocytes isolated from human liver were incubated with recombinant FGF19 protein. Human hepatocyte growth factor (hHGF) was included as a positive control. […]
# [3] = test system: primary mouse hepatocytes; test: In vitro pSTAT3 activation in primary mouse hepatocytes; type: cell-based; conditions: isolated mouse hepatocytes, 50 ng/ml
# Method: Primary mouse hepatocytes were isolated from 8-10 week old wild type mice (BioReclamation/IVT). Cells were diluted in attachment media, and cells were plated on collagen-coated 6-well plate (Becton Dickinson). Four hours later, cells were changed into M199 media supplemented with 10% FBS, 2 mM glutamine, 100 unit/ml penicillin, 100 unit/ml streptomycin, and cultured for 16 hours at 37° C. When indicated, 50 ng/ml FGF19 protein or 50 ng/ml mouse IL-6 (Peprotech) were added.
# Cell extracts were prepared in 50 mM Tris-Cl, PH 7.2, 150 mM NaCl, 1% NP-40, 0.1% SDS, 0.5% sodium deoxycholate supplemented with a protease inhibitor cocktail (Roche) and phosphatase inhibitors (Sigma, phosphatase inhibitor cocktail set 2 and set 3), and protein concentrations were determined by BCA protein assay (Thermo Scientific).
# Immunoblotting. Cell or tissue lysates were mixed with 4×SDS sample loading buffer (50 mM Tris-Cl, pH6.8, 2.5% SDS, urea, 4% β-mercaptoethanol), heated for 10 minutes at 95° C., and separated on 4-20% SDS-polyacrylamide gels (Life Technologies) in 1×MOPS running buffer. Proteins were transferred onto PVDF membranes (GE Healthcare). Membranes were blocked in TBST buffer (20 mM Tris-Cl, pH 7.6, 137 mM NaCl, 0.1% Tween-20) containing 5% non-fat dry milk for 1 hour at room temperature, and incubated with anti-pSTAT3^Y705, anti-total STAT3, anti-pERK, anti-total ERK, or anti-β-actin antibodies in blocking buffer at 4° C. overnight. Membranes were washed in TBST extensively, and bound proteins were detected with horseradish peroxidase-conjugated goat-anti-mouse IgG or goat-anti-rabbit IgG antibodies (GE Healthcare) for 1 hour at room temperature. […]
# To investigate an in vitro direct effect of FGF19 on STAT3 activation in isolated hepatocytes, pSTAT3^Y705 levels in primary cultures of hepatocytes upon FGF19 stimulation were analyzed by western blotting. […] Cell lysates were prepared at the indicated time points following FGF19 stimulation and analyzed for phosphorylation of the various proteins.
# [4] = diet with 0.01% tofacitinib from 4 weeks after AAV-FGF19, 20 weeks
molecule,measurement,setting,value
C[C@@H]1CCN(C(=O)CC#N)C[C@@H]1N(C)c1ncnc2[nH]ccc12 [tofacitinib],Average tumor load,[1]; [4],reduced
same,Number of macroscopically detectable tumors,[1]; [4],reduced
same,FGF19's effect on normalizing blood levels of HbA1c,[1]; tofacitinib in diet,no impact
same,FGF19's effect on normalizing blood levels of bile acids,[1]; tofacitinib in diet,no impact
same,FGF19's effect on normalizing blood levels of glucose,[1]; tofacitinib in diet,no impact
same,FGF19-induced liver tumor formation,"[1]; tofacitinib initiated 4 weeks after AAV, euthanized at 24 weeks",inhibited
B1,BrdU signal,[2],strong BrdU signals
B2,STAT3 phosphorylation (pSTAT3 Y705) by western blotting,[3],robust elevated phosphorylation
